According to US5707996A, “Pharmaceutical solution and methods for preparation thereof” (Macleod Pharmaceuticals, Inc., priority 1995, dated 1998):
Where two headings read alike, the source gives them in different places.

Experiments:
[1] = cited from earlier work
protozoal enzymes = conditions: versus host cells; cited from earlier work

SMILES	solubility in water (in words) [1]	solubility in 2-pyrrolidone (45° C.)	solubility in 2-pyrrolidone (room temperature)	solubility in NMP (NMP, room temperature)	solubility in water ([1]; room temperature)	selectivity for inhibiting folate synthesis in protozoal enzymes (protozoal enzymes)	solubility in acidic or basic aqueous medium (acidic or basic aqueous medium, room temperature)
Nc1ccc(S(=O)(=O)Nc2ncccn2)cc1 [Sodium sulfadiazine]	soluble in water						
COc1cc(Cc2cnc(N)nc2N)cc(OC)c1OC [Trimethoprim, 5-[(3,4,5-trimethoxyphenyl)methyl]-2,4-pyrimidinediamine]	not soluble in water	about 2.0 g/10 ml	about 0.4 g/10 ml	about 1.6 g/10 ml	about 0.04 g/100 ml	high selectivity	
Nc1ccc(S(=O)(=O)Nc2ncccn2)cc1 [sulfadiazine, 4-amino-N-2-pyrimidinylbenzenesulfonamide]							at least 2.3 g/10 ml
